Assay results reported in ChEMBL document CHEMBL4613209, “Quinolone hybrids and their anti-cancer activities: An overview” (Eur J Med Chem, 2019).

Tested on: HL-60
Assay: Cytotoxicity against human HL60 cells assessed as reduction in cell viability by MTT assay
Assay type: functional, cell-based

Compound	IC50
CC1COc2c(N3CCN(C)CC3)c(F)cc3c(=O)c(-c4nnc(SCc5nnc(-c6ccc(Cl)cc6)o5)o4)cn1c23 (stereo not given)	5.7 to 24.7 µM
CCn1cc(-c2nc3scc(-c4ccc(O)cc4)n3n2)c(=O)c2cc(F)c(N3CCN(C)CC3)cc21	3.6 to 56.8 µM
CCn1cc(-c2nc3scc(-c4ccc(OC)c(O)c4)n3n2)c(=O)c2cc(F)c(N3CCN(C)CC3)cc21	3.6 to 56.8 µM
CC1COc2c(N3CCN(C)CC3)c(F)cc3c(=O)c(-c4nc5scc(-c6ccc(F)cc6)n5n4)cn1c23 (stereo not given)	3.6 to 56.8 µM
CN1CCN(c2cc3c(cc2F)c(=O)c(-c2nnc(SCc4nnc(-c5ccc(Cl)cc5)o4)o2)cn3C2CC2)CC1	2.4 to 32.4 µM
CN1CCN(c2cc3c(cc2F)c(=O)c(-c2nnc(SCc4nnc(-c5ccc([N+](=O)[O-])cc5)o4)o2)cn3C2CC2)CC1	2.4 to 32.4 µM
COc1ccc(-c2nnc(CSc3nnc(-c4cn5c6c(c(N7CCN(C)CC7)c(F)cc6c4=O)OCC5C)o3)o2)cc1 (stereo not given)	5.7 to 24.7 µM
CC1COc2c(N3CCN(C)CC3)c(F)cc3c(=O)c(-c4nnc(SCc5nnc(-c6ccccc6)o5)o4)cn1c23 (stereo not given)	5.7 to 24.7 µM
COc1ccc(-c2csc3nc(-c4cn5c6c(c(N7CCN(C)CC7)c(F)cc6c4=O)OCC5C)nn23)cc1OC (stereo not given)	35.7 to 53.6 µM
CC1COc2c(N3CCN(C)CC3)c(F)cc3c(=O)c(-c4nc5scc(-c6ccccc6O)n5n4)cn1c23 (stereo not given)	3.6 to 56.8 µM
CCn1cc(-c2nc3scc(-c4ccccc4O)n3n2)c(=O)c2cc(F)c(N3CCN(C)CC3)cc21	3.6 to 56.8 µM
CCn1cc(-c2nc3scc(-c4ccc(Cl)cc4)n3n2)c(=O)c2cc(F)c(N3CCN(C)CC3)cc21	3.6 to 56.8 µM
CCn1cc(-c2nc3scc(-c4ccc(OC)cc4)n3n2)c(=O)c2cc(F)c(N3CCN(C)CC3)cc21	3.6 to 56.8 µM
CCn1cc(-c2nc3scc(-c4ccc([N+](=O)[O-])cc4)n3n2)c(=O)c2cc(F)c(N3CCN(C)CC3)cc21	3.6 to 56.8 µM
CCn1cc(-c2nc3scc(-c4ccccc4)n3n2)c(=O)c2cc(F)c(N3CCN(C)CC3)cc21	3.6 to 56.8 µM
COc1cc(-c2csc3nc(-c4cn5c6c(c(N7CCN(C)CC7)c(F)cc6c4=O)OCC5C)nn23)ccc1O (stereo not given)	3.6 to 56.8 µM
COc1ccccc1-c1csc2nc(-c3cn4c5c(c(N6CCN(C)CC6)c(F)cc5c3=O)OCC4C)nn12 (stereo not given)	3.6 to 56.8 µM

Tested on: L1210
Assay: Cytotoxicity against mouse L1210 cells assessed as reduction in cell viability by MTT assay
Assay type: functional, cell-based

Compound	IC50
CC1COc2c(N3CCN(C)CC3)c(F)cc3c(=O)c(-c4nnc(SCc5nnc(-c6ccc(Cl)cc6)o5)o4)cn1c23 (stereo not given)	5.7 to 24.7 µM
CCn1cc(-c2nc3scc(-c4ccc(O)cc4)n3n2)c(=O)c2cc(F)c(N3CCN(C)CC3)cc21	3.6 to 56.8 µM
CCn1cc(-c2nc3scc(-c4ccc(OC)c(O)c4)n3n2)c(=O)c2cc(F)c(N3CCN(C)CC3)cc21	3.6 to 56.8 µM
CC1COc2c(N3CCN(C)CC3)c(F)cc3c(=O)c(-c4nc5scc(-c6ccc(F)cc6)n5n4)cn1c23 (stereo not given)	3.6 to 56.8 µM
CN1CCN(c2cc3c(cc2F)c(=O)c(-c2nnc(SCc4nnc(-c5ccc(Cl)cc5)o4)o2)cn3C2CC2)CC1	2.4 to 32.4 µM
CN1CCN(c2cc3c(cc2F)c(=O)c(-c2nnc(SCc4nnc(-c5ccc([N+](=O)[O-])cc5)o4)o2)cn3C2CC2)CC1	2.4 to 32.4 µM
COc1ccc(-c2nnc(CSc3nnc(-c4cn5c6c(c(N7CCN(C)CC7)c(F)cc6c4=O)OCC5C)o3)o2)cc1 (stereo not given)	5.7 to 24.7 µM
CC1COc2c(N3CCN(C)CC3)c(F)cc3c(=O)c(-c4nnc(SCc5nnc(-c6ccccc6)o5)o4)cn1c23 (stereo not given)	5.7 to 24.7 µM
COc1ccc(-c2csc3nc(-c4cn5c6c(c(N7CCN(C)CC7)c(F)cc6c4=O)OCC5C)nn23)cc1OC (stereo not given)	35.7 to 53.6 µM
CC1COc2c(N3CCN(C)CC3)c(F)cc3c(=O)c(-c4nc5scc(-c6ccccc6O)n5n4)cn1c23 (stereo not given)	3.6 to 56.8 µM
CCn1cc(-c2nc3scc(-c4ccccc4O)n3n2)c(=O)c2cc(F)c(N3CCN(C)CC3)cc21	3.6 to 56.8 µM
CCn1cc(-c2nc3scc(-c4ccc(Cl)cc4)n3n2)c(=O)c2cc(F)c(N3CCN(C)CC3)cc21	3.6 to 56.8 µM
CCn1cc(-c2nc3scc(-c4ccc(OC)cc4)n3n2)c(=O)c2cc(F)c(N3CCN(C)CC3)cc21	3.6 to 56.8 µM
CCn1cc(-c2nc3scc(-c4ccc([N+](=O)[O-])cc4)n3n2)c(=O)c2cc(F)c(N3CCN(C)CC3)cc21	3.6 to 56.8 µM
CCn1cc(-c2nc3scc(-c4ccccc4)n3n2)c(=O)c2cc(F)c(N3CCN(C)CC3)cc21	3.6 to 56.8 µM
COc1cc(-c2csc3nc(-c4cn5c6c(c(N7CCN(C)CC7)c(F)cc6c4=O)OCC5C)nn23)ccc1O (stereo not given)	3.6 to 56.8 µM
COc1ccccc1-c1csc2nc(-c3cn4c5c(c(N6CCN(C)CC6)c(F)cc5c3=O)OCC4C)nn12 (stereo not given)	3.6 to 56.8 µM

Tested on: SMMC-7721
Assay: Cytotoxicity against human SMMC7721 cells assessed as reduction in cell viability by MTT assay
Assay type: functional, cell-based

Compound	IC50
CC1COc2c(N3CCN(C)CC3)c(F)cc3c(=O)c(-c4nnc(SCc5nnc(-c6ccc(Cl)cc6)o5)o4)cn1c23 (stereo not given)	5.7 to 24.7 µM
CCn1cc(-c2nc3scc(-c4ccc(O)cc4)n3n2)c(=O)c2cc(F)c(N3CCN(C)CC3)cc21	3.6 to 56.8 µM
CCn1cc(-c2nc3scc(-c4ccc(OC)c(O)c4)n3n2)c(=O)c2cc(F)c(N3CCN(C)CC3)cc21	3.6 to 56.8 µM
CC1COc2c(N3CCN(C)CC3)c(F)cc3c(=O)c(-c4nc5scc(-c6ccc(F)cc6)n5n4)cn1c23 (stereo not given)	3.6 to 56.8 µM
CN1CCN(c2cc3c(cc2F)c(=O)c(-c2nnc(SCc4nnc(-c5ccc(Cl)cc5)o4)o2)cn3C2CC2)CC1	2.4 to 32.4 µM
CN1CCN(c2cc3c(cc2F)c(=O)c(-c2nnc(SCc4nnc(-c5ccc([N+](=O)[O-])cc5)o4)o2)cn3C2CC2)CC1	2.4 to 32.4 µM
COc1ccc(-c2nnc(CSc3nnc(-c4cn5c6c(c(N7CCN(C)CC7)c(F)cc6c4=O)OCC5C)o3)o2)cc1 (stereo not given)	5.7 to 24.7 µM
CC1COc2c(N3CCN(C)CC3)c(F)cc3c(=O)c(-c4nnc(SCc5nnc(-c6ccccc6)o5)o4)cn1c23 (stereo not given)	5.7 to 24.7 µM
COc1ccc(-c2csc3nc(-c4cn5c6c(c(N7CCN(C)CC7)c(F)cc6c4=O)OCC5C)nn23)cc1OC (stereo not given)	35.7 to 53.6 µM
CC1COc2c(N3CCN(C)CC3)c(F)cc3c(=O)c(-c4nc5scc(-c6ccccc6O)n5n4)cn1c23 (stereo not given)	3.6 to 56.8 µM
CCn1cc(-c2nc3scc(-c4ccccc4O)n3n2)c(=O)c2cc(F)c(N3CCN(C)CC3)cc21	3.6 to 56.8 µM
CCn1cc(-c2nc3scc(-c4ccc(Cl)cc4)n3n2)c(=O)c2cc(F)c(N3CCN(C)CC3)cc21	3.6 to 56.8 µM
CCn1cc(-c2nc3scc(-c4ccc(OC)cc4)n3n2)c(=O)c2cc(F)c(N3CCN(C)CC3)cc21	3.6 to 56.8 µM
CCn1cc(-c2nc3scc(-c4ccc([N+](=O)[O-])cc4)n3n2)c(=O)c2cc(F)c(N3CCN(C)CC3)cc21	3.6 to 56.8 µM
CCn1cc(-c2nc3scc(-c4ccccc4)n3n2)c(=O)c2cc(F)c(N3CCN(C)CC3)cc21	3.6 to 56.8 µM
COc1cc(-c2csc3nc(-c4cn5c6c(c(N7CCN(C)CC7)c(F)cc6c4=O)OCC5C)nn23)ccc1O (stereo not given)	3.6 to 56.8 µM
COc1ccccc1-c1csc2nc(-c3cn4c5c(c(N6CCN(C)CC6)c(F)cc5c3=O)OCC4C)nn12 (stereo not given)	3.6 to 56.8 µM

Tested on: CAPAN-1
Assay: Cytotoxicity against human Capan1 cells assessed as reduction in cell viability by MTT assay
Assay type: functional, cell-based

Compound	IC50
CCn1cc(-c2nc3scc(-c4ccc(O)cc4)n3n2)c(=O)c2cc(F)c(N3CCN(C)CC3)cc21	3.6 to 56.8 µM
CCn1cc(-c2nc3scc(-c4ccc(OC)c(O)c4)n3n2)c(=O)c2cc(F)c(N3CCN(C)CC3)cc21	3.6 to 56.8 µM
CC1COc2c(N3CCN(C)CC3)c(F)cc3c(=O)c(-c4nc5scc(-c6ccc(F)cc6)n5n4)cn1c23 (stereo not given)	3.6 to 56.8 µM
COc1ccc(-c2csc3nc(-c4cn5c6c(c(N7CCN(C)CC7)c(F)cc6c4=O)OCC5C)nn23)cc1OC (stereo not given)	35.7 to 53.6 µM
CC1COc2c(N3CCN(C)CC3)c(F)cc3c(=O)c(-c4nc5scc(-c6ccccc6O)n5n4)cn1c23 (stereo not given)	3.6 to 56.8 µM
CCn1cc(-c2nc3scc(-c4ccccc4O)n3n2)c(=O)c2cc(F)c(N3CCN(C)CC3)cc21	3.6 to 56.8 µM
CCn1cc(-c2nc3scc(-c4ccc(Cl)cc4)n3n2)c(=O)c2cc(F)c(N3CCN(C)CC3)cc21	3.6 to 56.8 µM
CCn1cc(-c2nc3scc(-c4ccc(OC)cc4)n3n2)c(=O)c2cc(F)c(N3CCN(C)CC3)cc21	3.6 to 56.8 µM
CCn1cc(-c2nc3scc(-c4ccc([N+](=O)[O-])cc4)n3n2)c(=O)c2cc(F)c(N3CCN(C)CC3)cc21	3.6 to 56.8 µM
CCn1cc(-c2nc3scc(-c4ccccc4)n3n2)c(=O)c2cc(F)c(N3CCN(C)CC3)cc21	3.6 to 56.8 µM
COc1cc(-c2csc3nc(-c4cn5c6c(c(N7CCN(C)CC7)c(F)cc6c4=O)OCC5C)nn23)ccc1O (stereo not given)	3.6 to 56.8 µM
COc1ccccc1-c1csc2nc(-c3cn4c5c(c(N6CCN(C)CC6)c(F)cc5c3=O)OCC4C)nn12 (stereo not given)	3.6 to 56.8 µM

Tested on: Hep 3B2
Assay: Cytotoxicity against human Hep3B cells assessed as reduction in cell viability by MTT assay
Assay type: functional, cell-based

Compound	IC50
CCn1cc(-c2nc3scc(-c4ccc(O)cc4)n3n2)c(=O)c2cc(F)c(N3CCN(C)CC3)cc21	3.6 to 56.8 µM
CCn1cc(-c2nc3scc(-c4ccc(OC)c(O)c4)n3n2)c(=O)c2cc(F)c(N3CCN(C)CC3)cc21	3.6 to 56.8 µM
CC1COc2c(N3CCN(C)CC3)c(F)cc3c(=O)c(-c4nc5scc(-c6ccc(F)cc6)n5n4)cn1c23 (stereo not given)	3.6 to 56.8 µM
COc1ccc(-c2csc3nc(-c4cn5c6c(c(N7CCN(C)CC7)c(F)cc6c4=O)OCC5C)nn23)cc1OC (stereo not given)	35.7 to 53.6 µM
CC1COc2c(N3CCN(C)CC3)c(F)cc3c(=O)c(-c4nc5scc(-c6ccccc6O)n5n4)cn1c23 (stereo not given)	3.6 to 56.8 µM
CCn1cc(-c2nc3scc(-c4ccccc4O)n3n2)c(=O)c2cc(F)c(N3CCN(C)CC3)cc21	3.6 to 56.8 µM
CCn1cc(-c2nc3scc(-c4ccc(Cl)cc4)n3n2)c(=O)c2cc(F)c(N3CCN(C)CC3)cc21	3.6 to 56.8 µM
CCn1cc(-c2nc3scc(-c4ccc(OC)cc4)n3n2)c(=O)c2cc(F)c(N3CCN(C)CC3)cc21	3.6 to 56.8 µM
CCn1cc(-c2nc3scc(-c4ccc([N+](=O)[O-])cc4)n3n2)c(=O)c2cc(F)c(N3CCN(C)CC3)cc21	3.6 to 56.8 µM
CCn1cc(-c2nc3scc(-c4ccccc4)n3n2)c(=O)c2cc(F)c(N3CCN(C)CC3)cc21	3.6 to 56.8 µM
COc1cc(-c2csc3nc(-c4cn5c6c(c(N7CCN(C)CC7)c(F)cc6c4=O)OCC5C)nn23)ccc1O (stereo not given)	3.6 to 56.8 µM
COc1ccccc1-c1csc2nc(-c3cn4c5c(c(N6CCN(C)CC6)c(F)cc5c3=O)OCC4C)nn12 (stereo not given)	3.6 to 56.8 µM
